Experimental data as given in patent US7795254B2, “Benzomorpholine derivatives and methods of use” (Amgen Inc., priority 2007, dated 2010).
Counter-ions that a name gives are not always drawn. Like-named read-outs stand apart in the source and are kept apart here. Each block holds one molecule with its values, some of them ahead of it.

Experiments:
[1] = target: KDR (Homo sapiens, UniProt P35968); assay: KDR inhibition of metabolites; assay type: biochemical; settings: metabolites of Compound A
KDR, sequence (P35968 20-1356, species assumed): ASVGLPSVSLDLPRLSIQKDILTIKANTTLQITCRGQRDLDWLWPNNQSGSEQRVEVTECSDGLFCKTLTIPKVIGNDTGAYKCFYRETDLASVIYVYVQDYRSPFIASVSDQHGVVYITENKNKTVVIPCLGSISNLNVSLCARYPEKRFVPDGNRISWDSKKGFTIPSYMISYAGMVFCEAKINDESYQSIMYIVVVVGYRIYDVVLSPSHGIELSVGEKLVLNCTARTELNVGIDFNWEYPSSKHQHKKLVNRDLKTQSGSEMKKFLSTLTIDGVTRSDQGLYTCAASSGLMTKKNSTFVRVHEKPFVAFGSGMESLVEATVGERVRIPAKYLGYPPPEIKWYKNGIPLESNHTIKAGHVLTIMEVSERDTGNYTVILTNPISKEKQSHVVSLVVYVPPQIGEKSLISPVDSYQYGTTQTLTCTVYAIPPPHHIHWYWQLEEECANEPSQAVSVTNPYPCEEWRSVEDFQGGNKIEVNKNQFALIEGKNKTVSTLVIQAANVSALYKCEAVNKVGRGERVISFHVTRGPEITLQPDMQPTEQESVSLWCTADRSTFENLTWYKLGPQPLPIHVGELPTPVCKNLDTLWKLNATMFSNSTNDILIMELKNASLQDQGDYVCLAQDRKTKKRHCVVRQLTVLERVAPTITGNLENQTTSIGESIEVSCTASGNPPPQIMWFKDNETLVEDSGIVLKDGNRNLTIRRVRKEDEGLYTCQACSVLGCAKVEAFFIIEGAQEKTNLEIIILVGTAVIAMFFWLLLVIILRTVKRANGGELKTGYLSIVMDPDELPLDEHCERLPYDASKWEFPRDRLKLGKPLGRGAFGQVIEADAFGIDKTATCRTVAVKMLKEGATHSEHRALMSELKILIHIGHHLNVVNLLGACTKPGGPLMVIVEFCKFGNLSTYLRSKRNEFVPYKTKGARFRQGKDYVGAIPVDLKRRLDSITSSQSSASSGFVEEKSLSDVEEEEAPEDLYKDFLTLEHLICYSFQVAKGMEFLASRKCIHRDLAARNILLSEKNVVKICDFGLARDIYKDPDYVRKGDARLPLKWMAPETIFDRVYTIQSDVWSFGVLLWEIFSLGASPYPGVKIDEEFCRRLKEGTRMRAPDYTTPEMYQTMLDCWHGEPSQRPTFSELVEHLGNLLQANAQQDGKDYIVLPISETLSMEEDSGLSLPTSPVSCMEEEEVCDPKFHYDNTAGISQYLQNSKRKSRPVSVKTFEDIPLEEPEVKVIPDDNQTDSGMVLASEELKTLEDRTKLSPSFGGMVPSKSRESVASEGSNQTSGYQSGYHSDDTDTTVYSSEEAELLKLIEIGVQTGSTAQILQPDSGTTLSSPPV

[2] = system: VEGF-induced rat corneal angiogenesis; assay: VEGF-induced rat corneal angiogenesis assay; assay type: in vivo; settings: for Average # of Vessels: 7 days
Procedure: (§1) Tables 2 through 6 below describe the results obtained in the rat corneal in vivo model of angiogenesis for (1) reference compound (free base) 1, (2) Compound A (free base), and (3) the hydrochloride salt of Compound A. A VEGF-induced rat corneal angiogenesis assay was performed using the following procedure: • In Life Aspects: Female CD rats weighing approximately 250 grams were randomized into one of six treatment groups. On the day of surgery the rats were temporarily anesthetized using isoflurane. A vertical incision was made on the midline of the cornea and a pocket was created to separate the connective tissue layers of the stroma. The distance between the apex of the pocket and the limbus was approximately 1.8 mm. A presoaked nylon filter disk was inserted to the apex of the pocket (in the case of the control treatment group, the disks were soaked in a buffer containing bovine serum albumin; in the remaining treatment groups, the disks were soaked in buffer containing bovine serum albumin plus human VEGF to induce angiogenesis). The different treatment groups were then dosed daily with either vehicle (Ora Plus™, a commercially available vehicle) or a designated amount of test compound formulated in vehicle. • Study Termination and Analysis: After seven days, the rats were euthanized and the implanted corneas photographed using a Nikon SV-3 Ophthalmic Slit Lamp. Numerical data were generated from the digital images using the Metamorph image analysis system (Universal Imaging). Three endpoints were analyzed on each corneal image: (1) disk placement distance from the limbus, (2) number of vessels intersecting a perpendicular line at the midpoint of the disk placement distance, and (3) blood vessel area, as determined by thresholding and automated pixel counting. Only the number of blood vessels is shown in the tables as this endpoint correlated well with the blood vessel area. • Statistical Analysis: Results were analyzed with the StatView statistical program using one-way ANOVA, followed by Fisher's least significant difference test. Data are presented as mean±SE and P<0.05 was considered significant. AUC and ED50 values were calculated using methods well known in the art.

[3] = Exposure (AUC) in the rat corneal angiogenesis study; assay type: in vivo; settings: female, CD, rat, in vivo
Procedure: as §1

[4] = Water absorption of the hydrous hydrochloride form; assay type: physicochemical; settings: 90% relative humidity and 25° C.
Excerpt: The hydrochloride salt is formed by preparing a solution of Compound A free base in ethanol and adding hydrochloric acid in slight molar excess with stirring and optional heat. Spontaneous salt formation occurred both with and without the application of heating and cooling. The hydrochloride salt is known to exist in at least one anhydrous form, which has been confirmed by single-crystal X-ray analysis, and at least one hydrous form. The anhydrous form of the hydrochloride salt is crystalline and decomposes near 230° C. when heated at a rate of 10° C./minute. The hydrous form of Compound A hydrochloride has been obtained by suspending the anhydrous hydrochloride material in water or in dilute aqueous solutions of hydrochloric acid. The hydrous material is crystalline, can freely absorb up to 4 molar equivalents of water at 90% relative humidity and 25° C., and appears to fully dehydrate by 150° C. and decompose near 170° C. when heated at a rate of 10° C./minute. Both the anhydrous and hydrous forms of Compound A hydrochloride have unique X-ray powder diffraction patterns, the major peaks of which are described below: […]

[5] = system: HUVEC; assay: VEGF induced proliferation, HUVEC cell-based assay; settings: Homo sapiens
[6] = Rat pharmacokinetic profile; settings: in vivo
Excerpt: (§2) Table 7 provides additional information about the pharmacokinetic profiles of reference compound 1 and Compound A. The data contained in this table was obtained using methods well known in the art.

[7] = system: Human Liver Microsome; assay: Human liver microsome clearance; assay type: in vitro ADME; settings: human liver microsomes
Excerpt: as §2

[8] = system: Rat Liver Microsome; assay: Rat liver microsome clearance; assay type: in vitro ADME; settings: rat liver microsomes
Excerpt: as §2

IC50 [1]: 1.04 nM
Structure (SMILES): COc1cc2nccc(Oc3ccc4c(c3)OCCN4C(=O)Nc3cc(CO)on3)c2cc1OC [7-(6,7-dimethoxyquinolin-4-yloxy)-N-(5-(hydroxymethyl)isoxazol-3-yl)-2,3-dihydrobenzo[b][1,4]oxazine-4-carboxamide hydrochloride]

IC50 [1]: 1.68 nM
Structure (SMILES): COc1cc2nccc(Oc3ccc4c(c3)OCCN4C(=O)Nc3cc(C)on3)c2cc1O [7-(6-hydroxy-7-methoxyquinolin-4-yloxy)-N-(5-methylisoxazol-3-yl)-2,3-dihydrobenzo[b][1,4]oxazine-4-carboxamide]

IC50 [1]: 777 nM
Structure (SMILES): COc1cc2c(Oc3ccc4c(c3)OCCN4C(=O)Nc3cc(C)on3)ccnc2cc1O [7-(7-hydroxy-6-methoxyquinolin-4-yloxy)-N-(5-methylisoxazol-3-yl)-2,3-dihydrobenzo[b][1,4]oxazine-4-carboxamide]

AUC ([3]; 0.01 mg/kg, Table 5, HCl salt Run #2, 0.01 mg/kg daily): 95.8 ng·h/mL
AUC ([3]; 0.03 mg/kg, Table 4, HCl salt Run # 1, 0.03 mg/kg daily): 162 ng·h/mL
AUC ([3]; 0.03 mg/kg, Table 5, HCl salt Run #2, 0.03 mg/kg daily): 272 ng·h/mL
AUC ([3]; 0.1 mg/kg, Table 4, HCl salt Run # 1, 0.1 mg/kg daily): 460 ng·h/mL
AUC ([3]; 0.1 mg/kg, Table 5, HCl salt Run #2, 0.1 mg/kg daily): 954 ng·h/mL
AUC ([3]; 0.3 mg/kg, Table 4, HCl salt Run # 1, 0.3 mg/kg daily): 1190 ng·h/mL
AUC ([3]; 0.3 mg/kg, Table 5, HCl salt Run #2, 0.3 mg/kg daily): 3900 ng·h/mL
AUC ([3]; 1 mg/kg, Table 4, HCl salt Run # 1, 1.0 mg/kg daily): 3640 ng·h/mL
AUC ([3]; oral, 0.01 mg/kg, Table 6, HCl salt Run #3, 0.01 mg/kg daily): 21.8 ng·h/mL
AUC ([3]; oral, 0.03 mg/kg, Table 6, HCl salt Run #3, 0.03 mg/kg daily): 80.2 ng·h/mL
AUC ([3]; oral, 0.1 mg/kg, Table 6, HCl salt Run #3, 0.1 mg/kg daily): 322 ng·h/mL
AUC ([3]; oral, 0.3 mg/kg, Table 6, HCl salt Run #3, 0.3 mg/kg daily): 677 ng·h/mL
water absorbed [4]: up to 4 molar equivalents of water
Structure (SMILES): COc1cc2nccc(Oc3ccc4c(c3)OCCN4C(=O)Nc3cc(C)on3)c2cc1OC [Compound A (HCl Salt)]
ED50 ([2]; Rattus norvegicus, Table 4, HCl salt Run # 1, number of vessels, read-out: ED50): 0.04 mg/kg
ED50 ([2]; Rattus norvegicus, Table 5, HCl salt Run #2, number of vessels, read-out: ED50): 0.15 mg/kg
Average # of Vessels ([2]; Table 4, HCl salt Run # 1, VEGF disc + 0.03 mg/kg daily): 15.3
Average # of Vessels ([2]; Table 4, HCl salt Run # 1, VEGF disc + 0.1 mg/kg daily): 9.3
Average # of Vessels ([2]; Table 4, HCl salt Run # 1, VEGF disc + 0.3 mg/kg daily): 4.3
Average # of Vessels ([2]; Table 4, HCl salt Run # 1, VEGF disc + 1.0 mg/kg daily): 0.4
Average # of Vessels ([2]; Table 5, HCl salt Run #2, VEGF disc + 0.01 mg/kg daily): 28.9
Average # of Vessels ([2]; Table 5, HCl salt Run #2, VEGF disc + 0.03 mg/kg daily): 25.5
Average # of Vessels ([2]; Table 5, HCl salt Run #2, VEGF disc + 0.1 mg/kg daily): 18.0
Average # of Vessels ([2]; Table 5, HCl salt Run #2, VEGF disc + 0.3 mg/kg daily): 7.3
Average # of Vessels ([2]; Table 6, HCl salt Run #3, VEGF disc + 0.01 mg/kg daily): 28.4
Average # of Vessels ([2]; Table 6, HCl salt Run #3, VEGF disc + 0.03 mg/kg daily): 32.0
Average # of Vessels ([2]; Table 6, HCl salt Run #3, VEGF disc + 0.1 mg/kg daily): 15.4
Average # of Vessels ([2]; Table 6, HCl salt Run #3, VEGF disc + 0.3 mg/kg daily): 4.8

IC50 [1]: 5000 nM
Structure (SMILES): COc1cc2c(Oc3ccc4c(c3)OCCN4C(=O)Nc3cc(C)on3)cc[n+]([O-])c2cc1OC [Compound A N-oxide]

clearance ([6]; intravenous): 13.3 mL/min/kg
Vd ([6]; intravenous, read-out: Rat Volume of Distribution): 1 L/kg
half-life ([6]; iv, I.V., read-out: Rat I.V. T1/2 (converted)): 284 min
bioavailability ([6]; po, 2 mg/kg, P.O., 2 mpk, read-out: Rat P.O. (2 mpk) % F): 67%
AUC(0-inf) ([6]; po, 2 mg/kg, P.O., 2 mpk, read-out: Rat P.O. (2 mpk) AUC0-inf): 1710 ng·h/mL
AUC(0-t) ([6]; po, 2 mg/kg, P.O., 2 mpk, read-out: Rat P.O. (2 mpk) AUC0-t): 1700 ng·h/mL
half-life ([6]; po, 2 mpk, P.O., read-out: Rat P.O. T1/2 (converted)): 144 min
AUC ([3]; oral, 0.03 mg/kg, Table 2, free base, 0.03 mg/kg daily): 22.5 ng·h/mL
AUC ([3]; oral, 0.1 mg/kg, Table 2, free base, 0.1 mg/kg daily): 68.5 ng·h/mL
AUC ([3]; oral, 0.3 mg/kg, Table 2, free base, 0.3 mg/kg daily): 205 ng·h/mL
Human Liver Microsome [7]: 29 µL/min/mg
Rat Liver Microsome [8]: 65 µL/min/mg
Structure (SMILES): COc1cc2nccc(Oc3ccc4c(c3)OCCN4C(=O)Nc3ccon3)c2cc1OC [Reference Compound 1, reference compound]
ED50 ([2]; Rattus norvegicus, Table 2, free base, number of vessels, read-out: ED50): > 0.3 mg/kg
Average # of Vessels ([2]; Table 2, free base, VEGF disc + 0.01 mg/kg daily): 22.0
Average # of Vessels ([2]; Table 2, free base, VEGF disc + 0.03 mg/kg daily): 25.4
Average # of Vessels ([2]; Table 2, free base, VEGF disc + 0.1 mg/kg daily): 19.3
Average # of Vessels ([2]; Table 2, free base, VEGF disc + 0.3 mg/kg daily): 15.9
ED50 ([2]; free base, review of Tables 2 and 3): > 0.3 mpk
IC50 [5]: 7 nM
